Experimental findings from patent US5653961A, “Butixocort aerosol formulations in hydrofluorocarbon propellant” (Minnesota Mining and Manufacturing Company, priority 1995, dated 1997) are described below.

Each structure is given as a SMILES string. In brackets after ≈: the same amount, converted by molar mass.

The series is described as follows: Solubility of butixocort propionate in propellants and propellant/ethanol blends. It is filed as physicochemical. The protocol: Solubility of butixocort propionate in P134a, P227, and blends thereof with ethanol, was determined as follows: Drug and the selected propellant system were combined and agitated for a period of seven days at a selected temperature to afford a saturated solution. The solid was filtered off and the supernatant was weighed. The propellant was removed by evaporation and the drug was reconstituted quantitatively. The concentration of the drug in the reconstituted solution was determined and from this the mount and concentration of drug dissolved in the propellant system was calculated. TABLES 1 and 2 show the average of three independent determinations.

`CCCC(=O)O[C@]1(C(=O)CSC(=O)CC)CC[C@H]2[C@@H]3CCC4=CC(=O)CC[C@]4(C)[C@H]3[C@@H](O)C[C@@]21C` [Butixocort propionate, 11-beta-hydroxypregn-4-ene-3,20-dione-21-thiopropionate-17-butyrate]: where the note is “HFA 134a, 20° C.”, the “solubility in HFA 134a” value is listed as “about 0.02 % by weight”. Besides, the “solubility in HFA 227” value (HFA 227, 20° C.) is “about 0.03 % by weight”. Also, the solubility (commonly how much of the substance goes into solution per volume) at 168 h is, setting by setting: (propellant 134a, 0% ethanol, organic solvent or mixture, 0 weight % ethanol, 20°C, Table 2, average of three determinations) 300 µg/mL (≈ 594 µM); (propellant 134a, 1% ethanol, organic solvent or mixture, 1 weight % ethanol, 20°C, Table 2) 751 µg/mL (≈ 1490 µM); (propellant 134a, 2.5% ethanol, organic solvent or mixture, 2.5 weight % ethanol, 20°C, Table 2) 1760 µg/mL (≈ 3480 µM); (propellant 134a, 5% ethanol, organic solvent or mixture, 5 weight % ethanol, 20°C, Table 2) 4180 µg/mL (≈ 8280 µM); (propellant 134a, 7.5% ethanol, organic solvent or mixture, 7.5 weight % ethanol, 20°C, Table 2) 6960 µg/mL (≈ 13800 µM); (propellant 134a, 10% ethanol, organic solvent or mixture, 10 weight % ethanol, 20°C, Table 2) 9630 µg/mL (≈ 19100 µM). The solubility at 168 h (propellant 134a, organic solvent or mixture, 4 °C, Table 1, average of three determinations) was determined as 103 µg/mL (≈ 204 µM); the solubility at 168 h (propellant 134a, organic solvent or mixture, 20 °C, Table 1, average of three determinations) turned out to be 203 µg/mL (≈ 402 µM); the solubility at 168 h (propellant 134a, organic solvent or mixture, 30 °C, Table 1, average of three determinations) was determined as 300 µg/mL (≈ 594 µM); the solubility at 168 h (propellant 134a, organic solvent or mixture, 40 °C, Table 1, average of three determinations) amounted to 319 µg/mL (≈ 632 µM); the solubility at 168 h (propellant 227, 0% ethanol, organic solvent or mixture, Propellant 227, 0 weight % ethanol, 20°C, Table 2, average of three determinations) came out at 395 µg/mL (≈ 783 µM); the solubility at 168 h (propellant 227, 1% ethanol, organic solvent or mixture, Propellant 227, 1 weight % ethanol, 20°C, Table 2) is 971 µg/mL (≈ 1920 µM). The solubility at 168 h came to 1110 µg/mL (≈ 2210 µM) (propellant 227, 2.5% ethanol, organic solvent or mixture, Propellant 227, 2.5 weight % ethanol, 20°C, Table 2); 3850 µg/mL (≈ 7630 µM) (propellant 227, 5% ethanol, organic solvent or mixture, Propellant 227, 5 weight % ethanol, 20°C, Table 2); 6200 µg/mL (≈ 12300 µM) (propellant 227, 7.5% ethanol, organic solvent or mixture, Propellant 227, 7.5 weight % ethanol, 20°C, Table 2); 8520 µg/mL (≈ 16900 µM) (propellant 227, 10% ethanol, organic solvent or mixture, Propellant 227, 10 weight % ethanol, 20°C, Table 2); 261 µg/mL (≈ 517 µM) (propellant 227, organic solvent or mixture, Propellant 227, 4 °C, Table 1, average of three determinations); 285 µg/mL (≈ 565 µM) (propellant 227, organic solvent or mixture, Propellant 227, 20 °C, Table 1, average of three determinations). The solubility at 168 h was 306 µg/mL (≈ 606 µM) (propellant 227, organic solvent or mixture, Propellant 227, 30 °C, Table 1, average of three determinations) and 317 µg/mL (≈ 628 µM) (propellant 227, organic solvent or mixture, Propellant 227, 40 °C, Table 1, average of three determinations).
